Tests used:
[1] = tested on: cotton aphid (Aphis gossypii); assay: Insecticidal test for cotton aphid in foliar spray assay; format: in vivo; conditions: 72 h, foliar spray on squash, Corrected % Control (Abbott) after 3 days, read-out: Rating against cotton aphid on squash (foliar spray)
Experimental: (§1) The compounds identified in the foregoing examples were tested against cotton aphid using procedures described hereinafter. Insecticidal Test for Cotton Aphid (Aphis gossypii) in Foliar Spray Assay Squash seedlings with fully expanded cotyledon leaves were trimmed to one cotyledon per plant and infested with cotton aphid (wingless adults and nymphs) 1 day prior to chemical application. Each plant was examined before chemical application to ensure uniform infestation (ca. 30-70 aphids per plant). Compounds (2 mg) were dissolved in 2 ml of acetone:methanol (1:1) solvent, forming stock solutions of 1000 ppm. The stock solutions were diluted 5× with 0.025% Tween 20 in H2O to obtain a solution at 200 ppm. A hand-held Devilbiss aspirator type sprayer was used to apply the spray solutions until runoff to both sides of the squash cotyledon leaves. Four plants (4 replications) were used for each compound. Reference plants (solvent check) were sprayed with the diluent only. Treated plants were held in a holding room for 3 days at approximately 23° C. and 40% RH before the number of live aphids on each plant was recorded. Insecticidal activity was measured by Corrected % Control using Abbott's correction formula and presented in Table 1-Activity: Corrected % Control=100*(X−Y)/X • where X=No. of live aphids on solvent check plants • Y=No. of live aphids on treated plants Results are shown in Table 7. Insecticidal Test for Green Peach Aphid (Myzus persicae) in Foliar Spray Assay

[2] = tested on: green peach aphid (Myzus persicae); assay: Insecticidal test for green peach aphid in foliar spray assay; format: in vivo; conditions: 72 h, foliar spray on cabbage, Corrected % Control (Abbott) after three days, read-out: Rating against green peach aphid on cabbage (foliar spray)
Experimental: as §1, with “Squash” for “The compounds identified in the foregoing examples were tested against cotton aphid using procedures described hereinafter. Insecticidal Test for Cotton Aphid (Aphis gossypii) in Foliar Spray Assay Squash”, “Assay Cabbage seedlings grown in 3-inch pots, with 2-3 small (3-5 cm) true leaves, were used as test substrate. The seedlings were infested with 20-50 green peach aphids (wingless adult and nymph) 1-2 days prior to chemical application. Four seedlings were used for each treatment. Compounds (2 mg) were dissolved in 2 ml of acetone:methanol (1:1) solvent, forming stock solutions of 1000 ppm. The stock solutions were diluted 5× with 0.025% Tween 20 in H2O to obtain a solution at 200 ppm. A hand-held Devilbiss aspirator sprayer was used for spraying a solution to both sides of cabbage leaves until runoff. Reference plants (solvent check) were sprayed with the diluent only. Treated plants were held in a holding room for three days at approximately 23° C. and 40% RH prior to grading. Evaluation was conducted by counting the number of live aphids per plant under a microscope. Insecticidal activity was measured by using Abbott's correction formula: Corrected % Control=100*(X−Y)/X • where X=No. of live aphids on solvent check plants • Y=No. of live aphids on treated plants” for “Assay”

melting point	SMILES	pest or weed control at 200 ppm [1]	pest or weed control at 200 ppm [2]
–	CC(c1ccc(C(F)(F)F)nc1)S(C)(=O)=Nc1ccncc1 (centres unmarked) [Compound 8]	< 80%	< 80%
–	CC(c1ccc(C(F)(F)F)nc1)S(C)(=O)=Nc1ccc(C(F)(F)F)cn1 (centres unmarked) [Compound 12]	< 80%	–
–	CC(c1ccc(C(F)(F)F)nc1)S(C)(=O)=Nc1cccc[n+]1[O-] (centres unmarked) [Compound 24, 3-[1-ethyl(N-(1-oxy-pyridin-2-e)-sulfoximinyl)(methyl)]-6-trifluoromethylpyridine]	80 to 100%	< 80%
–	CC(c1ccc(C(F)(F)F)nc1)S(C)(=O)=Nc1ccc(Cl)cn1 (centres unmarked) [Compound 2, 3-[1-ethyl(N-(2-(5-chloro)pyridine)-sulfoximinyl)(methyl)]-6-trifluoromethylpyridine]	80 to 100%	80 to 100%
–	CC(c1ccc(C(F)(F)F)nc1)S(C)(=O)=Nc1nccs1 (centres unmarked) [Compound 6]	80 to 100%	80 to 100%
78 to 80 °C	CC(c1ccc(C(F)(F)F)nc1)S(C)(=O)=Nc1nc(-c2ccc(C#N)cc2)cs1 (centres unmarked) [Compound 43]	–	80 to 100%
114 to 116 °C	CCc1csc(N=S(C)(=O)Cc2ccc(C(F)(F)F)nc2)n1 (centres unmarked) [Compound 56]	–	80 to 100%
–	CC(c1ccc(C(F)(F)F)nc1)S(C)(=O)=Nc1ccccn1 (centres unmarked) [Compound 4, 3-[1-ethyl(N-(2-pyridine)-sulfoximinyl)(methyl)]-6-trifluoromethylpyridine]	80 to 100%	< 80%
134 to 141 °C	CC(c1ccc(C(F)(F)F)nc1)S(C)(=O)=Nc1nc(-c2ccccn2)cs1 (centres unmarked) [Compound 35]	–	80 to 100%
–	CC(c1ccc(C(F)(F)F)nc1)S(C)(=O)=Nc1ncccn1 (centres unmarked) [Compound 5]	< 80%	–
90 to 95 °C	CC(c1ccc(C(F)(F)F)nc1)S(C)(=O)=Nc1nc(-c2ccc(OC(F)(F)F)cc2)cs1 (centres unmarked) [Compound 52]	–	80 to 100%
126 to 128 °C	CS(=O)(Cc1ccc(C(F)(F)F)nc1)=Nc1nc(C(F)(F)F)cs1 (centres unmarked) [Compound 55]	–	80 to 100%
122 to 125 °C	CS(=O)(Cc1ccc(Cl)nc1)=Nc1nc(C(F)(F)F)cs1 (centres unmarked) [Compound 58]	–	80 to 100%
88 to 93 °C	CC(c1ccc(C(F)(F)F)nc1)S(C)(=O)=Nc1nc(-c2ccccc2)cs1 (centres unmarked) [Compound 15]	–	80 to 100%
102 to 106 °C	CC(c1ccc(C(F)(F)F)nc1)S(C)(=O)=Nc1nc(C2CC2)cs1 (centres unmarked) [Compound 32]	–	< 80%
168 to 173 °C	CC(c1ccc(C(F)(F)F)nc1)S(C)(=O)=Nc1nc(-c2ccsc2)cs1 (centres unmarked) [Compound 38]	–	80 to 100%

melting point	SMILES	pest or weed control at 200 ppm [1]	pest or weed control at 200 ppm [2]
88 to 94 °C	COc1ccc(-c2csc(N=S3(=O)CCCC3c3ccc(Cl)nc3)n2)cc1 (centres unmarked) [Compound 78]	–	< 80%
124 to 128 °C	CC(c1ccc(C(F)(F)F)nc1)S(C)(=O)=Nc1nc(-c2ccc(Cl)s2)cs1 (centres unmarked) [Compound 41]	–	80 to 100%
178 to 182 °C	CC(c1ccc(C(F)(F)F)nc1)S(C)(=O)=Nc1nc(-c2cccnc2)cs1 (centres unmarked) [Compound 33]	–	80 to 100%
107 to 110 °C	COc1cccc(-c2csc(N=S(C)(=O)C(C)c3ccc(C(F)(F)F)nc3)n2)c1 (centres unmarked) [Compound 44]	–	80 to 100%
134 to 137 °C	CC(c1ccc(C(F)(F)F)nc1)S(C)(=O)=Nc1nc(-c2ccc(Br)cc2)co1 (centres unmarked) [Compound 75]	–	< 80%
89 to 94 °C	CC(c1ccc(C(F)(F)F)nc1)S(C)(=O)=Nc1nc(-c2ccc(F)cc2)cs1 (centres unmarked) [Compound 27, 5-{1-[methyl(4-(4-fluorophenyl)-1,3-thiazol-2-yl)sulfonimidoyl]ethyl}-2-(trifluoromethyl)pyridine]	–	80 to 100%
–	CC(c1ccc(C(F)(F)F)nc1)S(C)(=O)=Nc1nc(Br)cs1 (centres unmarked) [Compound 13, 5-{1-[methyl(4-bromo-1,3-thiazol-2-yl)sulfonimidoyl]ethyl}-2-(trifluoromethyl)pyridine]	80 to 100%	< 80%
105 to 110 °C	CCOc1ccc(-c2csc(N=S(C)(=O)C(C)c3ccc(C(F)(F)F)nc3)n2)cc1 (centres unmarked) [Compound 46]	–	80 to 100%
163 to 167 °C	CC(c1ccc(C(F)(F)F)nc1)S(C)(=O)=Nc1nc(-c2nccs2)cs1 (centres unmarked) [Compound 39]	–	80 to 100%
72 to 77 °C	COc1ccccc1-c1csc(N=S(C)(=O)C(C)c2ccc(C(F)(F)F)nc2)n1 (centres unmarked) [Compound 51]	–	80 to 100%
67 to 71 °C	CCc1csc(N=S2(=O)CCCC2c2ccc(Cl)nc2)n1 (centres unmarked) [Compound 77]	–	80 to 100%
–	CC(c1ccc(C(F)(F)F)nc1)S(C)(=O)=Nc1ccc([N+](=O)[O-])cn1 (centres unmarked) [Compound 7]	80 to 100%	80 to 100%
144 to 148 °C	CC(c1ccc(C(F)(F)F)nc1)S(C)(=O)=Nc1nc(C(C)(C)C)cs1 (centres unmarked) [Compound 29]	–	80 to 100%
–	CC(c1ccc(C(F)(F)F)nc1)S(C)(=O)=Nc1ccc(F)cn1 (centres unmarked) [Compound 1, 3-[1-ethyl(N-(2-(5-fluoro)pyridine)-sulfoximinyl)(methyl)]-6-trifluoromethylpyridine]	80 to 100%	80 to 100%
160 to 165 °C	CC(c1ccc(C(F)(F)F)nc1)S(C)(=O)=Nc1nc(-c2ccc(Br)s2)cs1 (centres unmarked) [Compound 37]	–	80 to 100%

SMILES	melting point	pest or weed control at 200 ppm [1]	pest or weed control at 200 ppm [2]
COc1ccc(-c2csc(N=S(C)(=O)Cc3ccc(C(F)(F)F)nc3)n2)cc1 (centres unmarked) [Compound 54]	158 to 161 °C	–	< 80%
